According to patent publication US5908868A, “Retinol derivatives useful for enhancing immune response” (priority 1995, dated 1999):
Entries after “also recorded” stand apart in the source; their conditions may differ. Where two headings read alike, the source gives them in different places.

Tests used:
[1] = Stability (half-life) in serum-free tissue culture; type: in vitro ADME
[2] = Chemical stability during extraction; type: physicochemical
B lymphocytes = assay: B cell growth/survival; type: cell-based; settings: on a concentration basis
fibroblasts = assay: Expression of immediate early genes; type: cell-based; settings: unpublished work
Reversion to retinol = type: in vitro ADME
5/2 lymphoblastoid cells = type: in vitro ADME, human
Protocol: FIG. 24. Kinetics of biosynthesis of 14HRR in lymphoblastoid cells. 50 ml ITLB 600,000 5/2 cells/ml were incubated with 20 μCi of ^3 H retinol in serum-free ITLB medium. Cell pellets corresponding to 10 ml of culture were delipidated at 20 minute intervals and the corresponding lipid fraction separated on an analytical C18 reversed-phase column (see FIG. 20). Radioactive peaks were identified by coelution with cold reference retinoids.
The kinetics of biosynthesis of 13,14DHR and 14HRR were determined in 5/2 lymphoblastoid cells. These cells were cultured in the presence of ^3 H retinol for different time periods, and the cell-associated retinoids extracted as referenced above. They were then chromatographed on an analytical C18 column as described in FIG. 20. The sizes of peaks emerging at 16.8 minutes, representing 13,14DHR, and 18.5 minutes, representing 14HRR, were measured and plotted in the bar diagram of FIG. 24.

[3] = cited from earlier work
Ket = assay: Retinol metabolism; type: in vitro ADME, human
Protocol: (§1) FBS. The FBS was preincubated at room temperature with 14.4 uCi [^3 H
(§2) retinol (NEN) for 4 h. The cell pellet was washed twice with PBS. The
(§3) retinoid were extracted according to MClean et al. 90 and separated on an
(§4) analytical c18 reverse phase column according to FIG. 7. The DPM wer
(§5) determined using an online scintillation counter.

5/2 = assay: Retinol metabolism; type: in vitro ADME, human
Protocol: as §1, §2, §3, §4, §5

N-tera2 = assay: Retinol metabolism; type: in vitro ADME, human
Protocol: as §1, §2, §3, §4, §5

SK-N-SH = assay: Retinol metabolism; type: in vitro ADME, human
Protocol: as §1, §2, §3, §4, §5

Raji (4°) = assay: Retinol metabolism; type: in vitro ADME, human
Protocol: as §1, §2, §3, §4, §5

Hela = assay: Retinol metabolism; type: in vitro ADME, human
Protocol: as §1, §2, §3, §4, §5

SKL3 = assay: Retinol metabolism; type: in vitro ADME, human
Protocol: as §1, §2, §3, §4, §5

Raji (37°) = assay: Retinol metabolism; type: in vitro ADME, human
Protocol: as §1, §2, §3, §4, §5

5/2 cells = type: in vitro ADME, human
Protocol: 5/2 cells (10^6 cells in 10 ml HB 101 medium) were incubated with all-trans-[^3 H] retinol (10 uCe/ml). After 24 hours, retinoids were extracted from the washed cell pellet and unlabeled marker retinoids were added. The crude extract was loaded on an analytical reversed-phase C-18 column. Retinoids were eluted with the shown linear gradient of water/methanol/chloroform. The flow rate was 0.5 ml/min. DPM were determined with an on line scintillation counter. Reference retinoids were the all-trans forms of 0: 3,4-didehydroretinoic acid, 1: all-trans-retinoic acid, 2: 3,4-didehydroretinol, 3: retinol, 4: retinyl linoleate, 5: retinyl oleate, 6: retinyl palmitate. Shaded area corresponds to P3. Cross-hatched area corresponds to P1.
Lymphoblastoid 5/2 cells grown in the presence of 10^-6 M retinol were spiked with ^3 H-labeled retinol. After 16 hours the cell pellet was delipidated according to the method of McLean et al. and separated on a reversed phase C-18 HPLC column (FIG. 7). […] Three peaks, P1, P2 and P3, could not be immediately identified. One peak eluting at 36-39 minutes (corresponding 83% methanol 7% water) provisionally called P3, but now known as 14HRR, was unusual because unlike P1 eluting at 31-34 minutes, its relative amount increased when the retinol concentration was lowered or when retinol was given to the cells bound to RBP. […]

SK3886 = assay: Retinol metabolism; type: in vitro ADME
Protocol: as §1, §2, §3, §4, §5

RPMI = assay: Retinol metabolism; type: in vitro ADME; settings: RPMI leukemia (ALL)
Protocol: as §1, §2, §3, §4, §5

26 mammalian cells = assay: 14HRR production from 3H retinol in mammalian cell lines; type: in vitro ADME; settings: 3H retinol bound to fetal calf serum
Source text: The use of ^3 H retinol bound to fetal calf serum was used as an assay to test for P3 in other cell lines.
The use of ^3 H retinol bound to fetal calf serum was used as an assay to test for 14HRR in other cell lines.

thymocytes = assay: Growth-stimulating effect of retinol on anti-CD3 activated thymocytes in the presence of interleukins; type: cell-based, BALB/c mouse; settings: 3 days

For `CC(C=CC=C(C)C(O)CO)=CC=C1C(C)=CCCC1(C)C` (stereo not shown) [14HRR, 14-hydroxy-4,14-retro-retinol], the “lability relative to retinal” value [1] was “much more labile molecule than retinal”, the “stability to acid extraction” value ([2]; acid extraction step) was “does not survive an acid extraction step” and the stability in chloroform ([2]; chloroform) was “unstable in chloroform”. The “activity relative to all-trans retinol in B cells” value (B lymphocytes) was 10-30 fold more active, the “expression of immediate early genes” value (fibroblasts) was “facilitates the expression of immediate early genes in fibroblasts” and the reversion to retinol (Reversion to retinol) was “does not revert to retinol”.

In the case of `CC1=C(/C=C/C(C)=C/C=C/C(C)=C/CO)C(C)(C)CCC1` [retinol, all-trans retinol], the “order of metabolite production” value (5/2 lymphoblastoid cells) is listed as “production of 13,14DHR precedes that of 14HRR”, the half-life ([3]; cell culture, serum-free medium (32)) is listed as < 24 h and the half-life ([3]; serum-free tissue culture medium (32)) is listed as ~24 h. For the same compound, the Total cts. (Ket) was 4.6 × 10^5 cts, the “Ester (% of taken up retinol)” value (Ket; overnight) was 41% and the “P3 (% of taken up retinol)” value (Ket; overnight) was 3%. For the same compound, the “Retinol (% of taken up retinol)” value (Ket; overnight) was 52%, the Total cts. (5/2; 5/2) was 5.7 × 10^5 cts and the “Ester (% of taken up retinol)” value (5/2; 5/2, overnight) was 24%. The “P3 (% of taken up retinol)” value (5/2; 5/2, overnight) was 4%, the “Retinol (% of taken up retinol)” value (5/2; 5/2, overnight) was 67% and the Total cts. (N-tera2; N-tera2) was 13.5 × 10^5 cts. The “Ester (% of taken up retinol)” value (N-tera2; N-tera2, overnight) was 97%, the “P3 (% of taken up retinol)” value (N-tera2; N-tera2, overnight) was 0.4% and the “Retinol (% of taken up retinol)” value (N-tera2; N-tera2, overnight) was 0.7%. The Total cts. (SK-N-SH) was 2.0 × 10^5 cts, the “Ester (% of taken up retinol)” value (SK-N-SH; overnight) was 25% and the “P3 (% of taken up retinol)” value (SK-N-SH; overnight) was 0.9%. For the same compound, the Total cts. (Raji (4°); 2.5 × 10^6 cells) was 2.5 × 10^5 cts, the “Ester (% of taken up retinol)” value (Raji (4°); overnight) was 0% and the “P3 (% of taken up retinol)” value (Raji (4°); overnight) was 0%. For the same compound, the “Retinol (% of taken up retinol)” value (Raji (4°); overnight) was 99%, the Total cts. (Hela) was 1.0 × 10^5 cts and the “Ester (% of taken up retinol)” value (Hela; overnight) was 20%. The “P3 (% of taken up retinol)” value (Hela; overnight) was 3%, the “Retinol (% of taken up retinol)” value (Hela; overnight) was 71% and the Total cts. (SKL3; SKL3) was 1.6 × 10^5 cts. The “Ester (% of taken up retinol)” value (SKL3; SKL3, overnight) was 24%, the “P3 (% of taken up retinol)” value (SKL3; SKL3, overnight) was 2% and the “Retinol (% of taken up retinol)” value (SKL3; SKL3, overnight) was 71%. The Total cts. (Raji (37°); 2.5 × 10^6 cells) was 4.0 × 10^5 cts, the “Ester (% of taken up retinol)” value (Raji (37°); overnight) was 14% and the “P3 (% of taken up retinol)” value (Raji (37°); overnight) was 3%. For the same compound, the “Retinol (% of taken up retinol)” value (Raji (37°); overnight) was 79%, the “retinoids identified after 3H-retinol” value (5/2 cells) was 13-cis retinol, all-trans retinol, and several retinyl esters were identified and the “retinoids not detected after 3H-retinol” value (5/2 cells) was “Retinoic acid, 3,4-didehydroretinol acid as well as 3,4-didehydroretinol were not detectable”. The Total cts. (SK3886; SK3886) was 4.7 × 10^5 cts, the “Ester (% of taken up retinol)” value (SK3886; SK3886, overnight) was 2% and the “P3 (% of taken up retinol)” value (SK3886; SK3886, overnight) was 3%. For the same compound, the “Retinol (% of taken up retinol)” value (SK3886; SK3886, overnight) was 92%, the Total cts. (RPMI) was 1.2 × 10^5 cts and the “Ester (% of taken up retinol)” value (RPMI; overnight) was 38%. For the same compound, the “P3 (% of taken up retinol)” value (RPMI; overnight) was 2%, the “Retinol (% of taken up retinol)” value (RPMI; overnight) was 58% and the “radioactivity peak at 14HRR (P3) position” value (26 mammalian cells) was “radioactivity peak at the position where 14HRR normally elutes; also recorded: radioactivity peak at the position where P3 normally elutes”. The “CPM anti-CD3, 10^-6 M Retinol” value (thymocytes) was 79,247 ± 17,567 CPM.
